Measurements reported in patent publication US11028078B2 (The Johns Hopkins University, priority 2011, dated 2021).
Like-named read-outs stand apart in the source and are kept apart here.

Legend:
CYP3A4 = molecular target: T1, CYP3A4 (Homo sapiens, UniProt P08684); test: CYP3A4 enzyme assay (Vivid CYP3A4 Green Screening Kit); assay type: in vitro ADME; details: % enzyme inhibition at 1 μM drug / % enzyme inhibition at 1 μM itraconazole
T1 construct: purchased ThermoFisher P2857; host or cells: baculosomes
Protocol: And CYP3A4 inhibition was initially determined using a cell-free fluorescence-based assay at a final concentration of 1 μM (Table 7).
CYP3A4 enzyme assay. CYP3A4 enzyme activity was tested using Vivid™ CYP3A4 Green Screening Kit (ThermoFisher, #P2857) using the manufacturer's protocol. Briefly, CYP3A4 baculosomes and drugs were incubated 10 min at 37° C. Then Vivid® Substrates were added and the fluorescence (ex/em:485/520) were read every 1 min for 60 minute.

HUVEC = HUVEC proliferation assay ([3H]thymidine incorporation); assay type: cell-based, human; details: HUVEC; for IC50: Homo sapiens; for Proliferation (IC50/IC50 Itra): IC50 of analog relative to IC50 of itraconazole
Protocol: The activity of the analogs against HUVEC proliferation, an in vitro proxy for angiogenesis inhibition (Table 3) was analyzed. […]
Pooled HUVEC (Lonza) were grown in EGM-2 bullet kit media (Lonza) and used at passage eight or lower. The proliferation assays were conducted as previously described (Nacev, B.; Low, W. K.; Huang, Z.; Su, T.; Su, Z.; Alkuraya, H.; Kasuga, D.; Sun, W.; Trager, M.; Braun, M.; Fischer, G.; Zhang, K.; Liu, J. O., Acalcineurin-independent mechanism of angiogenesis inhibition by anon-immunosuppressive Cyclosporin Aanalog. J. Pharmacol. Exp. Ther. 2011, DOI:10.1124/jpet.111.18085).

[1] = test system: MB cultures derived from Ptch−/+; p53−/− mice; test: Medulloblastoma (MB) proliferation assay; assay type: cell-based, mouse; details: mouse medulloblastoma cultures, 96 h; relative to itraconazole
Source text: These cultures were derived from Ptch^−/+; p53^−/− mice that spontaneously develop medulloblastoma associated with ligand independent Hh pathway activation.
MB cultures were derived from mouse Ptch^−/+; p53^−/− MB grown as hind-flank allografts in nude mice (Harlan). Briefly, tumors were mechanically disrupted and made into single cell suspensions by two passages through a 70 μm nylon filter. Cells were pelleted by centrifugation and resuspended in PBS pH 7.4 twice. The cell suspension was then subjected to centrifugation at 1000×g for 25 min over a ficoll gradient. The viable cell layer formed at the ficoll boundary was then collected, suspended in PBS, and pelleted by centrifugation. The resulting pellet was then suspended and cultured as “neurospheres” in Neurobasal Media-A supplemented with retinoic acid deficient B-27 extract (NBMedia). Cells were cultured for three passages, with neurospheres disaggregated using Accumax (Innovative Cell Technologies) between passages.
Cultured MB neurospheres were disaggregated as described and 1×10^4 cells were seeded into wells of a 96-well assay plate in NBMedia and exposed to multiple analogue concentrations: Relative cell numbers following a 96-h incubation were quantified by CellTiter 96® AQueous One Solution Cell Proliferation Assay (Promega) per manufacturer's recommendations using a SpectraMax M2e spectrophotometer and SoftMax Pro software (Molecular Devices). Data was analyzed using Prism5 (GraphPad Software) and IC50 and IC90 values were determined from dose-response curves fitted to mean corrected absorbance normalized to control treatment.

VEGFR2 = VEGFR2 glycosylation in HUVEC (Western blot scoring); assay type: cell-based, human; details: VEGFR2 hypoglycosylation score in HUVEC, 2 μM, 24 h
Protocol: VEGFR2 hypoglycosylation was scored either robust (++), intermediate (+), or absent (−) (FIG. 6).
HUVEC were seeded at 5×10^4 per well of a 6-well plate in 3 mL of media. After an overnight recovery, the media was replaced with 2 mL fresh media and the analogs were added from 200× stocks in DMSO. Following a 24-h incubation, the media was aspirated and 2×SDS sample buffer was added to the cells which were incubated on ice for 10 min and then boiled for 10 min. […] Following three washes in TBS-T, the membrane was incubated with anti-rabbit horseradish peroxidase conjugated IgG (GE Healthcare) (1:5000-1:10000 dilution) in 1% BSA in TBS-T. The membranes were washed three times in TBS-T, incubated for 1-5 minutes with ECL substrate (Immobilon Wester, Milipore) and visualized (Kodak Image Staion 440 CF).

Gli1 transcript = test: Quantification of Gli1 transcript by TaqMan analysis in MB cells (Hh pathway); assay type: cell-based, mouse; details: Gli1 transcript fold induction score; MB cells exposed 24 h at the IC90 for MB proliferation
Source text: Inhibitors of the Hh pathway are known to inhibit MB cell proliferation. However, MB cell proliferation is also affected by drugs with targets other than Hh signaling.
Following drug exposure, cells were washed in PBS and pelleted by centrifugation at 300×g. Cell pellets were lysed in Trizol reagent (Invitrogen). Total RNA was separated and collected in the aqueous phase following centrifugation of lysate in the presence of chloroform. Total RNA was ethanol precipitated and purified over RNeasy Mini Kit (Qiagen) filter columns per manufacturer's recommendations. Transcript levels were quantified using gene-specific TaqMan primer/probe sets and the StepOne Plus Real-Time PCR system (Applied Biosystems) on cDNA reverse transcribed using the QuantiTect Reverse Transcription Kit (Qiagen) per manufacturers' recommendations. Results were quantified using StepOne Plus software v2.1 (Applied Biosystems) and were expressed as fold induction relative to control samples using the A ΔCt (2^−ΔΔCt) method with actin as an internal control. The primer/probe set (Applied Biosystems) for TaqMan PCR for mouse Gli-1 was Mm00494645_m1, and for mouse actin was Mm00607939_s1.

[2] = 3H thymidine incorporation, in μM, read-out: Proliferation IC50

T1 sequence (P08684 whole entry): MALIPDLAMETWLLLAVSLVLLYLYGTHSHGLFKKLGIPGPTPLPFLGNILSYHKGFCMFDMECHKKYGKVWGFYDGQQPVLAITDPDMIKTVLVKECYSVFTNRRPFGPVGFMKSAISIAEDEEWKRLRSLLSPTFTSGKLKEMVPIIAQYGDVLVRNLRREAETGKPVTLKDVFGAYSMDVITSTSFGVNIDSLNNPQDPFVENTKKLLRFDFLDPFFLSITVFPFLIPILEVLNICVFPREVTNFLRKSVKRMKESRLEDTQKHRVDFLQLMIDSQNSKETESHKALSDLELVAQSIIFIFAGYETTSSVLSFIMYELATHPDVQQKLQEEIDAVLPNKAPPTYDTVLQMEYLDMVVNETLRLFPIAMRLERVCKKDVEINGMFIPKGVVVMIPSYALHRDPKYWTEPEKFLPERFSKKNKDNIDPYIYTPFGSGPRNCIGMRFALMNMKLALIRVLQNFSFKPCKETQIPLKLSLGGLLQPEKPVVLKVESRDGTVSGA

SMILES | CYP3A4 Inhibition (compared to intracozanole at 1 μm) (CYP3A4) | IC50 (HUVEC; [2]) | IC50 (HUVEC; read-out: IC50 for inhibition of HUVEC proliferation) | MB Proliferation (IC50/IC50 Itra) [1] | Glycosylation (2 μM dose) (VEGFR2) | Proliferation (IC50/IC50 Itra) (HUVEC) | Gli I Inhibition (IC90 Prolif. dose) (Gli1 transcript)
CCC(C)n1ncn(-c2ccc(N3CCN(c4ccc(OC[C@@H]5CO[C@@](CBr)(c6ccc(Cl)cc6Cl)O5)cc4)CC3)cc2)c1=O (stereo partly drawn) [Compound 257, 4-(4-(4-(4-(((2S,4R)-2-(bromomethyl)-2-(2,4-dichlorophenyl)-1,3-dioxolan-4-yl)methoxy)phenyl)piperazin-1-yl)phenyl)-1-sec-butyl-1H-1,2,4-triazol-5(4H)-one] | 0.03 | 0.512 µM |  |  |  |  | 
CCC(C)n1ncn(-c2ccc(N3CCN(c4ccc(OC[C@@H]5CO[C@@](Cn6cccn6)(c6ccc(Cl)cc6Cl)O5)cc4)CC3)cc2)c1=O (stereo partly drawn) [Compound 234, 4-(4-(4-(4-(((2S,4R)-2-((1H-pyrazol-1-yl)methyl)-2-(2,4-dichlorophenyl)-1,3-dioxolan-4-yl)methoxy)phenyl)piperazin-1-yl)phenyl)-1-sec-butyl-1H-1,2,4-triazol-5(4H)-one] | No inhibition | 0.307 µM |  |  |  |  | 
CCC(C)n1ncn(-c2ccc(N3CCN(c4ccc(OC[C@@H]5CO[C@@](Cn6cnc(C)n6)(c6ccc(Cl)cc6Cl)O5)cc4)CC3)cc2)c1=O (stereo partly drawn) [Compound 250, 1-sec-butyl-4-(4-(4-(4-(((2S,4R)-2-(2,4-dichlorophenyl)-2-((3-methyl-1H-1,2,4-triazol-1-yl)methyl)-1,3-dioxolan-4-yl)methoxy)phenyl)piperazin-1-yl)phenyl)-1H-1,2,4-triazol-5(4H)-one] | 0.36 | 0.272 µM | 0.27 µM |  |  |  | 
CCC(C)n1ncn(-c2ccc(N3CCN(c4ccc(OC[C@@H]5CO[C@@](Cn6nnnc6-c6ccccc6)(c6ccc(Cl)cc6Cl)O5)cc4)CC3)cc2)c1=O (stereo partly drawn) [Compound 253, 1-sec-butyl-4-(4-(4-(4-(((2S,4R)-2-(2,4-dichlorophenyl)-2-((5-phenyl-1H-tetrazol-1-yl)methyl)-1,3-dioxolan-4-yl)methoxy)phenyl)piperazin-1-yl)phenyl)-1H-1,2,4-triazol-5(4H)-one] | 0.22 | 0.119 µM |  |  |  |  | 
CCc1nccn1C[C@@]1(c2ccc(Cl)cc2Cl)OC[C@@H](COc2ccc(N3CCN(c4ccc(-n5cnn(C(C)CC)c5=O)cc4)CC3)cc2)O1 (stereo partly drawn) [Compound 243, 1-(sec-butyl)-4-(4-(4-(4-(((2S,4R)-2-(2,4-dichlorophenyl)-2-((2-ethyl-1H-imidazol-1-yl)methyl)-1,3-dioxolan-4-yl)methoxy)phenyl)piperazin-1-yl)phenyl)-1H-1,2,4-triazol-5(4H)-one] | 0.08 | 0.225 µM |  |  |  |  | 
CCC(C)n1ncn(-c2ccc(N3CCN(c4ccc(OC[C@@H]5CO[C@@](Cn6ccnc6)(c6ccc(Cl)cc6Cl)O5)cc4)CC3)cc2)c1=O (stereo partly drawn) [Compound 233, 4-(4-(4-(4-(((2S,4R)-2-((1H-imidazol-1-yl)methyl)-2-(2,4-dichlorophenyl)-1,3-dioxolan-4-yl)methoxy)phenyl)piperazin-1-yl)phenyl)-1-sec-butyl-1H-1,2,4-triazol-5(4H)-one] | 1.18 | 0.085 µM |  |  |  |  | 
CCC(C)n1ncn(-c2ccc(N3CCN(c4ccc(OC[C@@H]5CO[C@@](Cc6ccccc6)(c6ccc(Cl)cc6Cl)O5)cc4)CC3)cc2)c1=O (stereo partly drawn) [Compound 260, 4-(4-(4-(4-(((2R,4R)-2-benzyl-2-(2,4-dichlorophenyl)-1,3-dioxolan-4-yl)methoxy)phenyl)piperazin-1-yl)phenyl)-1-sec-butyl-1H-1,2,4-triazol-5(4H)-one] | No inhibition |  |  |  |  |  | 
CCCCn1ncn(-c2ccc(N3CCN(c4ccc(OC[C@@H]5CO[C@@](Cn6cncn6)(c6ccc(Cl)cc6Cl)O5)cc4)CC3)cc2)c1=O (relative stereo) [Compound 7e, cis-(2S,4R)-4-[4-[4-[4-[[2-(2,4-Dichlorophenyl)-2-(1H-1,2,4-triazol-1-ylmethyl)-1,3-dioxolan-4-yl]methoxy]phenyl]-lpiperazinyl]phenyl]-2,4-dihydro-2-butyl-3H-1,2,4-triazol-3-one] |  |  |  | 0.70 | − | 2.10 | − (≥0.45)
CC(C)n1ncn(-c2ccc(N3CCN(c4ccc(OC[C@@H]5CO[C@@](Cn6cncn6)(c6ccc(Cl)cc6Cl)O5)cc4)CC3)cc2)c1=O (relative stereo) [Compound 7d, cis-(2S,4R)-4-[4-[4-[4-[[2-(2,4-Dichlorophenyl)-2-(1H-1,2,4-triazol-1-ylmethyl)-1,3-dioxolan-4-yl]methoxy]phenyl]-lpiperazinyl]phenyl]-2,4-dihydro-2-isopropyl-3H-1,2,4-triazol-3-one] |  |  |  | 1.06 | − | 2.18 | − (≥0.45)
O=c1[nH]ncn1-c1ccc(N2CCN(c3ccc(OC[C@H]4CO[C@](Cn5cncn5)(c5ccc(Cl)cc5Cl)O4)cc3)CC2)cc1 [Compound 17a, 4-(4-(4-(4-(((2R,4S)-2-((1H-1,2,4-triazol-1-yl)methyl)-2-(2,4-dichlorophenyl)-1,3-dioxolan-4-yl)methoxy)phenyl)piperazin-1-yl)phenyl)-1H-1,2,4-triazol-5(4H)-one] |  |  |  | 0.89 | − | 2.78 | ++ (≤0.15)
CCn1ncn(-c2ccc(N3CCN(c4ccc(OC[C@@H]5CO[C@@](Cn6cncn6)(c6ccc(Cl)cc6Cl)O5)cc4)CC3)cc2)c1=O (relative stereo) [Compound 7b, cis-(2S,4R)-4-[4-[4-[4-[[2-(2,4-Dichlorophenyl)-2-(1H-1,2,4-triazol-1-ylmethyl)-1,3-dioxolan-4-yl]methoxy]phenyl]-lpiperazinyl]phenyl]-2,4-dihydro-2-ethyl-3H-1,2,4-triazol-3-one] |  |  |  | 1.62 | − | 2.94 | − (≥0.45)
N#CCCCCCn1ncn(-c2ccc(N3CCN(c4ccc(OCC5COC(Cn6cncn6)(c6ccc(Cl)cc6Cl)O5)cc4)CC3)cc2)c1=O [Compound 7u, cis-(2S,4R)-4-[4-[4-[4-[[2-(2,4-Dichlorophenyl)-2-(1H-1,2,4-triazol-1-ylmethyl)-1,3-dioxolan-4-yl]methoxy]phenyl]-]piperazinyl]phenyl]-2,4-dihydro-2-(5-cyanopentyl)-3H-1,2,4-triazol-3-one] |  |  |  | 0.84 | ++ | 0.18 | + (0.16 to 0.44)
